Experimental data reported in paper PMC7221086, “Trefoil factors share a lectin activity that defines their role in mucus” (Nature Communications, 2020).

Columns and labels:
[1] = biological target: T1, mTFF1 (human TFF1, monomeric) (Homo sapiens, UniProt P04155); experiment: Isothermal titration calorimetry of glycans against mTFF1; format: binding; details: 25 °C
T1 construct: PelB signal peptide (N, cleaved yes); His6 (C, cleaved yes); made in house; host or cells: E. coli T7 Express, periplasmic extraction
T1 sequence (P04155 with tags, fused parts or gaps): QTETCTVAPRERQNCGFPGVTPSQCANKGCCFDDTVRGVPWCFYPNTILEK
Method: (§1) All TFF and ligand stock solutions were prepared in the same buffer (50 mM HEPES, 50 mM NaCl, pH 7.4) and filtered (0.22 µm) just prior to titration. All control and non-binding ligand experiments were performed as 12 × 3.18 µl injections. For experiments with GlcNAc-α-1,4-Gal (Carbosynth), 25 × 1.58 µl injections were used. All runs were performed at 25 °C in a MicroCal iTC200 (Malvern).
(§2) Supplementary Table 2: Parameters used for ITC and thermodynamic terms determined for
(§3) GlcNAc-α-1,4-Gal binding to the TFFs. Data are presented as mean values ±SD for three
(§4) Protein GlcNAc-α- T n Kd ΔH ΔS -TΔS ΔG
(§5) (30 µM) 1,4-Gal (µM) (℃) (µM) (kcal · mol-1) (cal · mol-1 · K-1) (kcal · mol-1) (kcal · mol-1)

TFF2 (human TFF2) = biological target: T2, TFF2 (human TFF2) (Homo sapiens, UniProt Q03403, N38Q); experiment: Isothermal titration calorimetry of glycans against TFF2; format: binding
T2 construct: with an N-terminal gp67 signal peptide and a C-terminal His10-tag; gp67 signal peptide (N, cleaved yes); made in house; host or cells: Sf21 insect cells (baculovirus), secreted
T2 sequence (Q03403 24-129 N38Q): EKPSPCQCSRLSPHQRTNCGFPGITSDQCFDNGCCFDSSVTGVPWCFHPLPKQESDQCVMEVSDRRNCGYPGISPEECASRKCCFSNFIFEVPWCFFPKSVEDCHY
Method: as §1, §2, §3, §4, §5

[2] = biological target: T3, mTFF3 (human TFF3, monomeric) (Homo sapiens, UniProt Q07654, C78S); experiment: Isothermal titration calorimetry of glycans against mTFF3; format: binding
T3 construct: with an N-terminal PelB signal peptide, no interchain Cys, and a C-terminal His6-tag; PelB signal peptide (N, cleaved yes); His6 (C, cleaved yes); made in house; host or cells: E. coli T7 Express, periplasmic extraction
T3 sequence (Q07654 22-80 C78S): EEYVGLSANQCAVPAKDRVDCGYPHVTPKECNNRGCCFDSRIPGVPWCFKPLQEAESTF
Method: as §1, §2, §3, §4, §5

mTFF1 = biological target: T4, mTFF1 (Homo sapiens, UniProt P04155); experiment: Tryptophan fluorescence quenching assay, mTFF1; format: binding
T4 construct: PelB signal peptide (N, cleaved yes); His6 (C, cleaved yes); made in house; host or cells: E. coli T7 Express, periplasmic extraction
T4 sequence (P04155 29-72 limits assumed): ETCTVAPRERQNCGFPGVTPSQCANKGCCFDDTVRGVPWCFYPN
Method: (§6) Tryptophan fluorescence quenching assays were performed at 25 °C on an EnVision 2105 Multimode Plate Reader (PerkinElmer) with excitation at 280 nm and emission measured at 340 nm. The assay was performed in a 384-well plate (Corning, low volume black round bottom polystyrene non-binding surface) using 15 µl per well. Each sample contained mTFF1 or mTFF3 (5 µM) and GlcNAc-α-1,4-Gal (1 µM–4.1 mM) in 50 mM BTP/citric acid, 25 mM NaCl, at either pH 2.6, 5.0, or 7.4. For each ligand dilution series, Kd was calculated by fitting the data to a one-site binding curve using Prism 8 (GraphPad) and the mean calculated from three independent experiments.

mTFF3 = biological target: T5, mTFF3 (Homo sapiens, UniProt Q07654, C78S); experiment: Tryptophan fluorescence quenching assay, mTFF3; format: binding
T5 construct: with an N-terminal PelB signal peptide, no interchain Cys, and a C-terminal His6-tag; PelB signal peptide (N, cleaved yes); His6 (C, cleaved yes); made in house; host or cells: E. coli T7 Express, periplasmic extraction
T5 sequence (Q07654 22-80 C78S): T3 sequence (Q07654 22-80 C78S)
Method: as §6

all TFFs = experiment: Dissociation constant of TFF-disaccharide complexes, summary of orthogonal techniques; format: binding, human; details: physiological pH, approximate
Method: as §1, §6

dTFF1bio-N14A = biological target: T6, dTFF1bio-N14A (Homo sapiens, UniProt P04155, N40A); experiment: ITC of GlcNAc-α-1,4-Gal against dTFF1bio-N14A; format: binding; details: mutant dTFF1bio-N14A
T6 construct: […]; made in house; host or cells: E. coli SHuffle T7; dimerised with K3Fe(CN)6
T6 sequence (P04155 25-84 N40A): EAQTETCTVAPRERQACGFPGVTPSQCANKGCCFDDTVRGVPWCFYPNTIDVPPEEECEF
Method: as §1
(§7) Supplementary Figure 1: ITC controls and negative results. Top row: Ligand into buffer and
(§8) buffer into protein controls for Figure 1D. Bottom row: ITC data for TFF mutants.
(§9) (1 picture or pasted object on this page, not shown here)

the other TFF mutants = experiment: ITC of GlcNAc-α-1,4-Gal against the other TFF mutants; format: binding, human
Method: as §1, §7, §8, §9

[3] = biological target: bacterial carbohydrate-binding module family 32 protein (CBM32); details: CBM32 binding GlcNAc-α-1,4-Gal; cited from earlier work

CC(=O)N[C@H]1[C@@H](O[C@@H]2[C@H](O)[C@@H](O)C(O)O[C@@H]2CO)O[C@H](CO)[C@@H](O)[C@@H]1O (stereo partly drawn) [GlcNAc-α-1,4-Gal]
n ([1]; ITC stoichiometry): 1.0 ± 0.2 | -TΔS ([1]; ITC): 4 ± 2 kcal/mol | ΔG ([1]; ITC): -5.97 ± 0.03 kcal/mol | ΔH ([1]; ITC): -10 ± 2 kcal/mol | ΔS ([1]; ITC): -14 ± 5 cal · mol-1 · K-1 | Kd ([1]; ITC, 50 mM HEPES, 50 mM NaCl, pH 7.4, protein 30 µM): 49 ± 4 µM | Kd (TFF2 (human TFF2)): 44 ± 8 µM | n (TFF2 (human TFF2); ITC stoichiometry, 25 °C): 0.7 ± 0.3 | -TΔS (TFF2 (human TFF2); ITC, 25 °C): 20 ± 10 kcal/mol | ΔG (TFF2 (human TFF2); ITC, 25 °C): -6.2 ± 0.2 kcal/mol | ΔH (TFF2 (human TFF2); ITC, 25 °C): -20 ± 10 kcal/mol | ΔS (TFF2 (human TFF2); ITC, 25 °C): -60 ± 40 cal · mol-1 · K-1 | Kd [2]: 65 ± 5 µM | n ([2]; ITC stoichiometry, 25 °C): 1.0 ± 0.1 | -TΔS ([2]; ITC, 25 °C): 5.0 ± 0.5 kcal/mol | ΔG ([2]; ITC, 25 °C): -5.83 ± 0.05 kcal/mol | ΔH ([2]; ITC, 25 °C): -10.8 ± 0.5 kcal/mol | ΔS ([2]; ITC, 25 °C): -17 ± 2 cal · mol-1 · K-1 | Kd (mTFF1; pH 2.6, 25 °C): 67 ± 1 µM | Kd (mTFF1; pH 7.4, 25 °C): 37 ± 2 µM | Kd (mTFF3; pH 2.6, 25 °C): 350 ± 60 µM | Kd (mTFF3; pH 7.4, 25 °C): 58 ± 1 µM | Kd at pH 2.6 relative to pH 7.4 (mTFF3; mTFF3): six-fold higher | Kd (all TFFs): ~50 µM | binding by ITC (dTFF1bio-N14A): unable to detect any binding | binding by ITC (dTFF1bio-N14A; listed as GlcNAc-a-1,4-Gal): could not detect any residual binding | binding by ITC (the other TFF mutants): unable to detect any binding | Kd [3]: 72 µM
